Test results as given in patent publication US20240000872A1, “NOVEL BACTERIOPHAGE THAT LYSES ACINETOBACTER GENUS BACTERIA HAVING RESISTANCE TO ANTIBIOTICS” (priority 2020, published 2024).

System: Acinetobacter baumannii strains
Experiment: Antibiotic susceptibility test (CLSI disk diffusion test method, read per CLSI 2016); as to antibiotic susceptibility S/I/R: key: ‘S’ means susceptible; ‘I’ means intermediate; ‘R’ means resistant; as to susceptibility category (S/I/R): key: ‘S’ means susceptible; ‘I’ means intermediate; ‘R’ means resistant
Assay type: cell-based
Parameters: antibiotic susceptibility test value / susceptibility test value (number given before S/I/R) / antibiotic susceptibility value: unit not given here

cortrimoxazole
antibiotic susceptibility value (host strain YMC16/01/R353): 160 | susceptibility category (S/I/R) (host strain YMC16/01/R353): R | susceptibility test value (number given before S/I/R) (host strain YMC16/01/R353): 160 | antibiotic susceptibility S/I/R (host strain YMC16/01/R380): S | antibiotic susceptibility value (host strain YMC16/01/R380): 20 | susceptibility category (S/I/R) (host strain YMC16/01/R380): S | susceptibility test value (number given before S/I/R) (host strain YMC16/01/R380): 20 | antibiotic susceptibility S/I/R (host strain YMC16/01/R397): R | antibiotic susceptibility value (host strain YMC16/01/R397): 160 | susceptibility category (S/I/R) (host strain YMC16/01/R397): R | susceptibility test value (number given before S/I/R) (host strain YMC16/01/R397): 160 | antibiotic susceptibility S/I/R (host strain YMC16/01/R405): R | antibiotic susceptibility value (host strain YMC16/01/R405): 320 | susceptibility category (S/I/R) (host strain YMC16/01/R405): R | susceptibility test value (number given before S/I/R) (host strain YMC16/01/R405): 320 | antibiotic susceptibility S/I/R (host strain YMC16/03/R4461): R | antibiotic susceptibility value (host strain YMC16/03/R4461): 320 | susceptibility category (S/I/R) (host strain YMC16/03/R4461): R | susceptibility test value (number given before S/I/R) (host strain YMC16/03/R4461): 320 | antibiotic susceptibility S/I/R (host strain YMC16/05/R2210): R | antibiotic susceptibility value (host strain YMC16/05/R2210): 320 | susceptibility category (S/I/R) (host strain YMC16/05/R2210): R | susceptibility test value (number given before S/I/R) (host strain YMC16/05/R2210): 320 | antibiotic susceptibility S/I/R (host strain YMC16/07/R2512): R | antibiotic susceptibility value (host strain YMC16/07/R2512): 320 | susceptibility category (S/I/R) (host strain YMC16/07/R2512): R | susceptibility test value (number given before S/I/R) (host strain YMC16/07/R2512): 320 | antibiotic susceptibility S/I/R (host strain YMC16/09/R2471): R | antibiotic susceptibility value (host strain YMC16/09/R2471): 160 | susceptibility category (S/I/R) (host strain YMC16/09/R2471): R | susceptibility test value (number given before S/I/R) (host strain YMC16/09/R2471): 160 | antibiotic susceptibility S/I/R (host strain YMC16/10/R2537): R | antibiotic susceptibility value (host strain YMC16/10/R2537): 160 | susceptibility category (S/I/R) (host strain YMC16/10/R2537): R | susceptibility test value (number given before S/I/R) (host strain YMC16/10/R2537): 160 | antibiotic susceptibility S/I/R (host strain YMC16/12/B11422): R | antibiotic susceptibility value (host strain YMC16/12/B11422): 160 | susceptibility category (S/I/R) (host strain YMC16/12/B11422): R | susceptibility test value (number given before S/I/R) (host strain YMC16/12/B11422): 160 | antibiotic susceptibility S/I/R (host strain YMC16/12/B11449): R | antibiotic susceptibility value (host strain YMC16/12/B11449): 320 | susceptibility category (S/I/R) (host strain YMC16/12/B11449): R | susceptibility test value (number given before S/I/R) (host strain YMC16/12/B11449): 320 | antibiotic susceptibility S/I/R (host strain YMC16/12/B13325): R | antibiotic susceptibility value (host strain YMC16/12/B13325): 320 | susceptibility category (S/I/R) (host strain YMC16/12/B13325): R | susceptibility test value (number given before S/I/R) (host strain YMC16/12/B13325): 320 | antibiotic susceptibility S/I/R (host strain YMC16/12/P503): R | antibiotic susceptibility value (host strain YMC16/12/P503): 320 | susceptibility category (S/I/R) (host strain YMC16/12/P503): R | susceptibility test value (number given before S/I/R) (host strain YMC16/12/P503): 320 | antibiotic susceptibility S/I/R (host strain YMC16/12/R4637): R | antibiotic susceptibility value (host strain YMC16/12/R4637): 320 | susceptibility category (S/I/R) (host strain YMC16/12/R4637): R | susceptibility test value (number given before S/I/R) (host strain YMC16/12/R4637): 320 | antibiotic susceptibility S/I/R (host strain YMC17/01/B8053): R | antibiotic susceptibility value (host strain YMC17/01/B8053): 320 | susceptibility category (S/I/R) (host strain YMC17/01/B8053): R | susceptibility test value (number given before S/I/R) (host strain YMC17/01/B8053): 320 | antibiotic susceptibility S/I/R (host strain YMC17/01/B10087): R | antibiotic susceptibility value (host strain YMC17/01/B10087): 160 | susceptibility category (S/I/R) (host strain YMC17/01/B10087): R | susceptibility test value (number given before S/I/R) (host strain YMC17/01/B10087): 160 | antibiotic susceptibility S/I/R (host strain YMC17/01/B12075): S | antibiotic susceptibility value (host strain YMC17/01/B12075): 20 | susceptibility category (S/I/R) (host strain YMC17/01/B12075): S | susceptibility test value (number given before S/I/R) (host strain YMC17/01/B12075): 20 | antibiotic susceptibility S/I/R (host strain YMC17/01/B13454): R | antibiotic susceptibility value (host strain YMC17/01/B13454): 160 | susceptibility category (S/I/R) (host strain YMC17/01/B13454): R | susceptibility test value (number given before S/I/R) (host strain YMC17/01/B13454): 160 | antibiotic susceptibility S/I/R (host strain YMC17/01/P518): R | antibiotic susceptibility value (host strain YMC17/01/P518): 160 | susceptibility category (S/I/R) (host strain YMC17/01/P518): R | susceptibility test value (number given before S/I/R) (host strain YMC17/01/P518): 160 | antibiotic susceptibility S/I/R (host strain YMC17/01/R2812): R | antibiotic susceptibility value (host strain YMC17/01/R2812): 320 | susceptibility category (S/I/R) (host strain YMC17/01/R2812): R | susceptibility test value (number given before S/I/R) (host strain YMC17/01/R2812): 320 | antibiotic susceptibility S/I/R (host strain YMC17/02/B14): R | antibiotic susceptibility value (host strain YMC17/02/B14): 320 | susceptibility category (S/I/R) (host strain YMC17/02/B14): R | susceptibility test value (number given before S/I/R) (host strain YMC17/02/B14): 320 | antibiotic susceptibility S/I/R (host strain YMC17/02/B87): R | antibiotic susceptibility value (host strain YMC17/02/B87): 320 | susceptibility category (S/I/R) (host strain YMC17/02/B87): R | susceptibility test value (number given before S/I/R) (host strain YMC17/02/B87): 320 | antibiotic susceptibility S/I/R (host strain YMC17/02/B721): R | antibiotic susceptibility value (host strain YMC17/02/B721): 320 | susceptibility category (S/I/R) (host strain YMC17/02/B721): R | susceptibility test value (number given before S/I/R) (host strain YMC17/02/B721): 320 | antibiotic susceptibility S/I/R (host strain YMC17/02/B4039): R | antibiotic susceptibility value (host strain YMC17/02/B4039): 80 | susceptibility category (S/I/R) (host strain YMC17/02/B4039): R | susceptibility test value (number given before S/I/R) (host strain YMC17/02/B4039): 80 | antibiotic susceptibility S/I/R (host strain YMC17/02/B4520): R | antibiotic susceptibility value (host strain YMC17/02/B4520): 160 | susceptibility category (S/I/R) (host strain YMC17/02/B4520): R | susceptibility test value (number given before S/I/R) (host strain YMC17/02/B4520): 160 | antibiotic susceptibility S/I/R (host strain YMC17/02/B4864): S | antibiotic susceptibility value (host strain YMC17/02/B4864): 20 | susceptibility category (S/I/R) (host strain YMC17/02/B4864): S | susceptibility test value (number given before S/I/R) (host strain YMC17/02/B4864): 20 | antibiotic susceptibility S/I/R (host strain YMC17/02/B8414): R | antibiotic susceptibility value (host strain YMC17/02/B8414): 320 | susceptibility category (S/I/R) (host strain YMC17/02/B8414): R | susceptibility test value (number given before S/I/R) (host strain YMC17/02/B8414): 320 | antibiotic susceptibility S/I/R (host strain YMC17/02/P523): S | antibiotic susceptibility value (host strain YMC17/02/P523): 20 | susceptibility category (S/I/R) (host strain YMC17/02/P523): S | susceptibility test value (number given before S/I/R) (host strain YMC17/02/P523): 20 | antibiotic susceptibility S/I/R (host strain YMC17/02/R541): R | antibiotic susceptibility value (host strain YMC17/02/R541): 320 | susceptibility category (S/I/R) (host strain YMC17/02/R541): R | susceptibility test value (number given before S/I/R) (host strain YMC17/02/R541): 320 | antibiotic susceptibility S/I/R (host strain YMC17/02/R2392): R | antibiotic susceptibility value (host strain YMC17/02/R2392): 320 | susceptibility category (S/I/R) (host strain YMC17/02/R2392): R | susceptibility test value (number given before S/I/R) (host strain YMC17/02/R2392): 320 | antibiotic susceptibility S/I/R (host strain YMC17/03/B4730): R | antibiotic susceptibility value (host strain YMC17/03/B4730): 320 | susceptibility category (S/I/R) (host strain YMC17/03/B4730): R | susceptibility test value (number given before S/I/R) (host strain YMC17/03/B4730): 320 | antibiotic susceptibility S/I/R (host strain YMC17/03/B5000): R | antibiotic susceptibility value (host strain YMC17/03/B5000): 320 | susceptibility category (S/I/R) (host strain YMC17/03/B5000): R | susceptibility test value (number given before S/I/R) (host strain YMC17/03/B5000): 320 | antibiotic susceptibility S/I/R (host strain YMC17/03/P971): R | antibiotic susceptibility value (host strain YMC17/03/P971): 320 | susceptibility category (S/I/R) (host strain YMC17/03/P971): R | susceptibility test value (number given before S/I/R) (host strain YMC17/03/P971): 320 | antibiotic susceptibility S/I/R (host strain YMC17/03/R348): R | antibiotic susceptibility value (host strain YMC17/03/R348): 320 | susceptibility category (S/I/R) (host strain YMC17/03/R348): R | susceptibility test value (number given before S/I/R) (host strain YMC17/03/R348): 320 | antibiotic susceptibility S/I/R (host strain YMC17/03/R585): R | antibiotic susceptibility value (host strain YMC17/03/R585): 320 | susceptibility category (S/I/R) (host strain YMC17/03/R585): R | susceptibility test value (number given before S/I/R) (host strain YMC17/03/R585): 320 | antibiotic susceptibility S/I/R (host strain YMC17/03/R1888): R | antibiotic susceptibility value (host strain YMC17/03/R1888): 320 | susceptibility category (S/I/R) (host strain YMC17/03/R1888): R | susceptibility test value (number given before S/I/R) (host strain YMC17/03/R1888): 320 | antibiotic susceptibility S/I/R (host strain YMC17/03/R3279): R | antibiotic susceptibility value (host strain YMC17/03/R3279): 320 | susceptibility category (S/I/R) (host strain YMC17/03/R3279): R | susceptibility test value (number given before S/I/R) (host strain YMC17/03/R3279): 320 | antibiotic susceptibility S/I/R (host strain YMC17/03/R4077): R | antibiotic susceptibility value (host strain YMC17/03/R4077): 320 | susceptibility category (S/I/R) (host strain YMC17/03/R4077): R | susceptibility test value (number given before S/I/R) (host strain YMC17/03/R4077): 320 | antibiotic susceptibility S/I/R (host strain YMC17/03/R4607): R | antibiotic susceptibility value (host strain YMC17/03/R4607): 320 | susceptibility category (S/I/R) (host strain YMC17/03/R4607): R | susceptibility test value (number given before S/I/R) (host strain YMC17/03/R4607): 320 | antibiotic susceptibility S/I/R (host strain YMC17/04/R488): R | antibiotic susceptibility value (host strain YMC17/04/R488): 160 | susceptibility category (S/I/R) (host strain YMC17/04/R488): R | susceptibility test value (number given before S/I/R) (host strain YMC17/04/R488): 160 | antibiotic susceptibility S/I/R (host strain YMC17/04/R640): R | antibiotic susceptibility value (host strain YMC17/04/R640): 320 | susceptibility category (S/I/R) (host strain YMC17/04/R640): R | susceptibility test value (number given before S/I/R) (host strain YMC17/04/R640): 320 | antibiotic susceptibility S/I/R (host strain YMC/17/05/R1095): R | antibiotic susceptibility value (host strain YMC/17/05/R1095): 320 | susceptibility category (S/I/R) (host strain YMC/17/05/R1095): R | susceptibility test value (number given before S/I/R) (host strain YMC/17/05/R1095): 320
